Laboratory results: patent US9708314B2, “Heterocyclic amide compound” (NISSAN CHEMICAL INDUSTRIES, LTD., priority 2013, dated 2017)

Key:
Assay type in all cases: in vivo
[1] = tested on: Echinochloa crus-galli var. crus-galli; test: Test Example 3: herbicidal effect by application to foliage (Wagner pot, water depth 0.1-0.5 cm); details: Nineteenth Table; application to foliage; application herbicide amount 320 g/ha
Method in brief: (§1)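 Scores (0–5) reflect herbicidal ratio three weeks after a foliar spray: 0 is 5% or less, 5 is 90% or more. Plants had grown 14 days in alluvial soil pots in a 25–30 °C greenhouse before treatment with water-diluted emulsion at a set g/ha.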

[2] = tested on: Leptochloa chinensis; test: as above; details: Nineteenth Table; application to foliage; application herbicide amount 320 g/ha
Method in brief: as §1

[3] = tested on: Abutilon theophrasti; test: Test Example 4: herbicidal effect by application to foliage (diluvial soil, plastic box); details: application to foliage, 320 g/ha
Method in brief: (§2)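 Seeds sown in sterilized diluvial soil, covered ~1.5 cm, grown 14 days in greenhouse at 25° C. to 30° C. Emulsion formulation diluted in water to set rate (g/ha) and sprayed onto stems and leaves. Effect scored visually 3 weeks later on 0–5 scale (5 = ≥90% herbicidal ratio, 0 = ≤5%).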

[4] = tested on: Alopecurus myosuroides; test: as above; details: application to foliage, 320 g/ha
Method in brief: as §2

[5] = tested on: Amaranthus retroflexus; test: as above; details: application to foliage, 320 g/ha
Method in brief: as §2

[6] = tested on: Apera spica-venti.; test: as above; details: application to foliage, 320 g/ha
Method in brief: as §2

[7] = tested on: Avena fatua; test: as above; details: application to foliage, 320 g/ha
Method in brief: as §2

[8] = tested on: Chenopodium album; test: as above; details: application to foliage, 320 g/ha
Method in brief: as §2

[9] = tested on: Digitaria ciliaris; test: as above; details: application to foliage, 320 g/ha
Method in brief: as §2

[10] = tested on: Echinochloa crus-galli var. crus-galli; test: as above; details: application to foliage, 320 g/ha
Method in brief: as §2

[11] = tested on: Galium spurium; test: as above; details: application to foliage, 320 g/ha
Method in brief: as §2

[12] = tested on: Lolium multiflorum Lam.; test: as above; details: application to foliage, 320 g/ha
Method in brief: as §2

[13] = tested on: Setaria viridis; test: as above; details: application to foliage, 320 g/ha
Method in brief: as §2

[14] = tested on: Stellaria media; test: as above; details: application to foliage, 320 g/ha
Method in brief: as §2

[15] = tested on: Veronica persica; test: as above; details: application to foliage, 320 g/ha
Method in brief: as §2

[16] = tested on: Beta vulgaris ssp. vulgaris; test: Test Example 4: effect on crop by application to foliage (diluvial soil, plastic box); details: application to foliage, 320 g/ha
Method in brief: as §2

[17] = tested on: Brassica campestris L.; test: as above; details: application to foliage, 320 g/ha
Method in brief: as §2

[18] = tested on: Glycine max; test: as above; details: application to foliage, 320 g/ha
Method in brief: as §2

[19] = tested on: Triticum aestivum; test: as above; details: application to foliage, 320 g/ha
Method in brief: as §2

[20] = tested on: Zea mays; test: as above; details: application to foliage, 320 g/ha
Method in brief: as §2

[21] = tested on: directly sowed Oryza sativa; test: as above; details: application to foliage, 320 g/ha
Method in brief: as §2

Structure (SMILES)	H (herbicidal effect grade) [1]	D (herbicidal effect grade) [2]	herbicidal effect, M (Abutilon theophrasti) [3]	herbicidal effect, J (Alopecurus myosuroides) [4]	herbicidal effect, N (Amaranthus retroflexus) [5]	herbicidal effect, L (Apera spica-venti.) [6]	herbicidal effect, I (Avena fatua) [7]	herbicidal effect, O (Chenopodium album) [8]	herbicidal effect, F (Digitaria ciliaris) [9]	herbicidal effect, H (Echinochloa crus-galli var. crus-galli) [10]	herbicidal effect, Q (Galium spurium) [11]	herbicidal effect, K (Lolium multiflorum Lam.) [12]	herbicidal effect, G (Setaria viridis) [13]	herbicidal effect, P (Stellaria media) [14]	herbicidal effect, R (Veronica persica) [15]	effect on crop, f (Beta vulgaris ssp. vulgaris) [16]	effect on crop, g (Brassica campestris L.) [17]	effect on crop, c (Glycine max) [18]	effect on crop, e (Triticum aestivum) [19]	effect on crop, b (Zea mays) [20]	further results
CC#Cc1nnc2c(C(=O)Nc3nnnn3C)ccc(C(F)(F)F)n12 [2-106]	1 (Herbicidal ratio of 5% or more and less than 20%)	2 (Herbicidal ratio of 20% or more and less than 40%)	5 (Herbicidal ratio of 90% or more (almost completely withered))	0 (Herbicidal ratio of 5% or less (almost no effect))	4 (Herbicidal ratio of 70% or more and less than 90%)	0 (Herbicidal ratio of 5% or less (almost no effect))	1 (Herbicidal ratio of 5% or more and less than 20%)	5 (Herbicidal ratio of 90% or more (almost completely withered))	3 (Herbicidal ratio of 40% or more and less than 70%)	3 (Herbicidal ratio of 40% or more and less than 70%)	3 (Herbicidal ratio of 40% or more and less than 70%)	0 (Herbicidal ratio of 5% or less (almost no effect))	1 (Herbicidal ratio of 5% or more and less than 20%)	4 (Herbicidal ratio of 70% or more and less than 90%)	3 (Herbicidal ratio of 40% or more and less than 70%)	5 (Herbicidal ratio of 90% or more (almost completely withered))	3 (Herbicidal ratio of 40% or more and less than 70%)	0 (Herbicidal ratio of 5% or less (almost no effect))	0 (Herbicidal ratio of 5% or less (almost no effect))	0 (Herbicidal ratio of 5% or less (almost no effect))	effect on crop, d (directly sowed Oryza sativa) [21]: 4 (Herbicidal ratio of 70% or more and less than 90%)
COCCSc1nnc2c(C(=O)Nc3nnnn3C)ccc(C(F)(F)F)n12 [2-101]	5 (Herbicidal ratio of 90% or more (almost completely withered))	5 (Herbicidal ratio of 90% or more (almost completely withered))	5 (Herbicidal ratio of 90% or more (almost completely withered))	3 (Herbicidal ratio of 40% or more and less than 70%)	5 (Herbicidal ratio of 90% or more (almost completely withered))	4 (Herbicidal ratio of 70% or more and less than 90%)	3 (Herbicidal ratio of 40% or more and less than 70%)	5 (Herbicidal ratio of 90% or more (almost completely withered))	5 (Herbicidal ratio of 90% or more (almost completely withered))	5 (Herbicidal ratio of 90% or more (almost completely withered))	4 (Herbicidal ratio of 70% or more and less than 90%)	3 (Herbicidal ratio of 40% or more and less than 70%)	5 (Herbicidal ratio of 90% or more (almost completely withered))	5 (Herbicidal ratio of 90% or more (almost completely withered))	5 (Herbicidal ratio of 90% or more (almost completely withered))	5 (Herbicidal ratio of 90% or more (almost completely withered))	5 (Herbicidal ratio of 90% or more (almost completely withered))	2 (Herbicidal ratio of 20% or more and less than 40%)	3 (Herbicidal ratio of 40% or more and less than 70%)	4 (Herbicidal ratio of 70% or more and less than 90%)	effect on crop, d (directly sowed Oryza sativa) [21]: 5 (Herbicidal ratio of 90% or more (almost completely withered))
C=CCN(C)c1nnc2c(C(=O)Nc3nnnn3C)ccc(C(F)(F)F)n12 [2-100]	5 (Herbicidal ratio of 90% or more (almost completely withered))	5 (Herbicidal ratio of 90% or more (almost completely withered))	5 (Herbicidal ratio of 90% or more (almost completely withered))	2 (Herbicidal ratio of 20% or more and less than 40%)	5 (Herbicidal ratio of 90% or more (almost completely withered))	4 (Herbicidal ratio of 70% or more and less than 90%)	3 (Herbicidal ratio of 40% or more and less than 70%)	5 (Herbicidal ratio of 90% or more (almost completely withered))	5 (Herbicidal ratio of 90% or more (almost completely withered))	5 (Herbicidal ratio of 90% or more (almost completely withered))	5 (Herbicidal ratio of 90% or more (almost completely withered))	3 (Herbicidal ratio of 40% or more and less than 70%)	4 (Herbicidal ratio of 70% or more and less than 90%)	5 (Herbicidal ratio of 90% or more (almost completely withered))	5 (Herbicidal ratio of 90% or more (almost completely withered))	5 (Herbicidal ratio of 90% or more (almost completely withered))	5 (Herbicidal ratio of 90% or more (almost completely withered))	0 (Herbicidal ratio of 5% or less (almost no effect))	0 (Herbicidal ratio of 5% or less (almost no effect))	5 (Herbicidal ratio of 90% or more (almost completely withered))	effect on crop, d (directly sowed Oryza sativa) [21]: 4 (Herbicidal ratio of 70% or more and less than 90%)
